Structures can show the parent of a compound that is named as a salt. Where two headings read alike, the source gives them in different places.
Legend:
[1] = tested on: carrageenin-induced hind paw edema; test: Inhibitory effect on carrageenin-induced hind paw edema in rats; type: in vivo, rats of Wistar strain; conditions: male Wistar rats, 8 per group, oral; reference drugs at LD₅₀ amount, compound of this invention equimolar to diclofenac sodium salt; compared with Control group (P<0.01); no significant difference between the test compounds
Excerpt: (a) Inhibitory effect on carrageenin-induced hind paw edema in rats:
40 Male rats of Wistar strain weighing 100-130 g were divided into the following 5 groups each consisting of 8 rats: 1. Control group, 2. Group for the administration of the compound of this invention, 3. Group for the administration of diclofenac Na, 4. Group for the administration of flurubiprofen and 5. Group for the administration of indomethacin. Prior to the administration of the test compounds, plantar injections 1% carrageenin solution were made to each rat to induce hind paw edema. To each rat of the Groups 3, 4 and 5, the LD₅₀ amount of the relevant test compound was orally administered in molar amounts. The compound of the present invention was administered in an equimolar amount to the diclofenac sodium salt.

[2] = tested on: male rats of Wistar strain; type: in vivo
Description: (b) Gastric ulcerogenic action:
Three groups of male rats of Wistar strain weighing 300-340 g were used, each group consisting of 7 rats; one group (Group 1) was used for control, another group (Group 2) for the administration of the compound of this invention and the other group (Group 3) for the administration of diclofenac sodium salt. After 24 hour fasting prior to the test, the compound of this invention and the diclofenac sodium salt were orally administered each in a dose of 20 mg/kg to the rats of the relevant groups. Six hours after the administration, the rats were sacrificed by decaptation and their stomachs were immediately removed. A 5% formaline solution (10 ml) was injected through the cardia into the stomach cavity and the stomach was fixed overnight in a 10% formaline solution. Each fixed stomach was cut along the greater curvature, and the inside of the stomach was investigated by the naked eye to check whether ulcers and erosions occurred or not. An ulcerogenic and erosion index was 0.71±0.42 in Group 1, 1.13±0.40 in Group 2 and 17.57±4.28 in Group 3. The number of rats having ulcers or erosions was 3/7 (42.9%) in Group 1, 4/7 (57.1%) in Group 2 and 7/7 (100%) in Group 3.

[3] = tested on: female mice of ICR strain; test: Analgesic and anti-capillary permeability effects according to Wittle's method (acetic acid stretching, PSB exudation); type: in vivo; conditions: oral 25 mg/kg, 1% acetic acid i.p., compared with control Group 3 (P<0.01), no significant difference between Groups 1 and 2; for inhibitory activities of the stretching: stretchings counted for 20 minutes; for inhibitory activities of the exudation of the colorant from the peritoneal cavity: 4% Pontamine Sky Blue i.v.
Excerpt: (b) Analgesic and anti-capillary permeability effects according to Wittle's method:
Three groups of female mice of ICR strain weighing 22-28 g were used, each group consisting of 10 mice; one group (Group 1) was used for the administration of the compound of this invention, another group (Group 2) for the administration of diclofenac sodium salt and the other group (Group 3) as control. […] Immediately after the intraperitoneal injection, the number of stretchings of the treated mice were counted and recorded for 20 minutes. After this observation, the mice were immediately sacrificed by dislocation of cervical vertebrae and subjected to ventrotomy. The peritoneal cavity of each mouse was washed with 5 ml of distilled water to exudate PSB in the peritoneal cavity, and the amount of the colorant exudated was measured.

[4] = Solubility (description of the substance); type: physicochemical; conditions: organic solvents
[5] = tested on: mice of ICR strain; test: in vivo; conditions: oral, male and female mice
Description: (§1) (a) Acute oral toxicity in mice:
(§2) Groups of male and female mice of ICR strain weighing 25-35 g were used for the test, each group consisting of 6 mice. […] LD₅₀ values of the compound of this invention were calculated for each concentration according to the Litchfield-Wilcoxon's method from the number of dead mice during one week.

[6] = in vivo; conditions: mouse, in vivo, po, LD₅₀, oral administration, Litchfield-Wilcoxon's method, dead mice during one week
Description: as §1, §2

Structure (SMILES)	swelling of the edema [1]	number of rats having ulcers or erosions ([2]; rat, in vivo, po, 20 mg/kg)	ulcerogenic and erosion index ([2]; rat, in vivo, po, 20 mg/kg)	inhibitory activities of the stretching [3]	inhibitory activities of the exudation of the colorant from the peritoneal cavity [3]	solubility [4]	LD₅₀ values relative to those of diclofenac sodium salt [5]	LD50 at 168 h ([6]; female mice)	LD50 at 168 h ([6]; male mice)	ulcerogenic and erosion index ([2]; male Wistar rats, 7 per group, 24 hour fasting, oral 20 mg/kg, six hours after administration)
CC(C(=O)O)c1ccc(-c2ccccc2)c(F)c1 (stereo not drawn) [flurubiprofen]	significantly inhibited	–	–	–	–	–	–	–	–	–
Cc1oc(=O)oc1COC(=O)Cc1ccccc1Nc1c(Cl)cccc1Cl [compound of this invention, (5-methyl-2-oxo-1,3-dioxolen-4-yl)methyl 2-(2,6-dichloroanilino)phenylacetate]	significantly inhibited	4/7 (57.1%)	1.13±0.40	significant difference	significant difference	soluble in organic solvents such as alcohols	approximately 3 times	516 mg/kg	460 mg/kg	–
COc1ccc2c(c1)c(CC(=O)O)c(C)n2C(=O)c1ccc(Cl)cc1 [indomethacin]	significantly inhibited	–	–	–	–	–	–	–	–	–
O=C(O)Cc1ccccc1Nc1c(Cl)cccc1Cl [diclofenac sodium salt, reference compound]	significantly inhibited	–	–	significant difference	significant difference	–	–	–	–	17.57±4.28

— EP0326637A1, “New 2-anilinophenylacetic acid derivative” (Mikasa Seiyaku Co., Ltd., priority 1988, dated 1989)
